Assay results taken from patent publication US20150079000A1, “Labelled Quinoxaline Derivatives as Multimodal Radiopharmaceuticals and Their Precursors” (INSTITUT NATIONAL DE LA SANTET DE LA RECHERCHE MEDICALE, priority 2012, published 2015).

Columns and labels:
melanin polymers = assay: Biodistribution by secondary ion mass spectrometry (SIMS) analysis; type: in vivo, C57BL/6J mice; details: B16BL6 melanoma cells colony in lung, 1 h after i.v. 0.1 μmol/mice
Description: B16BL6 cells were injected intravenously into male C57BL/6J mice to obtain, within 12 days, tumour cell colonies in lungs mimicking pulmonary micrometastases. After i.v. administration of compound (1) (0.1 μmol/mice in 0.2 mL of a hydroalcoholic solution (5% v/v, 0.9% NaCl) per mouse), mice were killed 1 h post injection. Lungs were removed and small pieces of tissue including B16 melanoma colonies were isolated and fixed by slam freezing on an LN2-precooled metal mirror. Samples were dehydrated by freeze drying starting at −110 to −10° C. before embedding in Spurr resin. Serial sections of 0.4 μm thick were deposited on stainless steel holders for SIMS analysis or on glass slides for light microscopy observation.

[1] = octanol/water (PBS buffer) partition coefficient (log D); type: physicochemical
[2] = radiochemical stability of the radiotracer after preparation; type: physicochemical
[3] = test system: B16 murine melanoma tumours; assay: Ex vivo biodistribution of [18F]-labelled compounds; type: in vivo, C57BL/6J mice
Description: (§1) All our studies were performed in accordance with French and European Economic Community (86-609, EEC) guidelines for care of laboratory animals. Protocols were performed under the authorization of the French Direction des Services Veterinaires (authorization no. CE 86-12). Male C57BL/6J mice were originating from Charles River laboratories and maintained at 21° C. with a 12 h/12 h light/dark cycle, fed with a breeding diet (diet A04 from Safe, Villemoisson, France) and received water ad libitum. For transplantation B16BL6 cell suspension were grown in a monolayer culture to confluence, after which cells were trypsinized, washed with phosphate buffer saline (PBS) and they were resuspended in PBS. Mice were anesthetized by isoflurane (4% for induction and 2±0.5% for maintaining in oxygen flux) inhalation. The primary tumour model was induced by subcutaneous injection of 3×10^5 melanoma B16B16 cells in 0.1 mL on the right shoulder of mice.
Ex vivo biodistribution studies: An ex vivo biodistribution study was performed for better comparison of [^18F](1) and [^18F](5). Experimentations were undertaken at day-10 or day-14 after cell inoculation (n=3-6/group). […] Tumours and major organs and tissues were promptly excised, harvested, weighted and their radioactivity counted using a calibrated γ-counter with a 400 to 600 keV energy window. After radioactive decay correction, results were expressed as percentage of injected dose per gram of tissue (% ID/g).

B16BL6 tumour = assay: PET imaging in B16BL6 tumour bearing mice; type: in vivo, C57BL/6J mice; details: 1 h p.i., day-15
Description: as §1
Whole-body PET scans were acquired 1 h after bolus injection of […] of the appropriate [^18F]-compound in a volume of 0.15 ml via the tail vein. Mice were anesthetized by intraperitoneal (i.p.) administration (200 μL/mouse) of a ketamine-xylazine mixture in saline: ketamine (100 mg/kg, Imalgene™, Rhône Mérieux, Lyon, France) and xylazine (10 mg/kg, Rompun™, Bayer, France) before radiotracer injection and imaged by using a small-animal PET device, eXplore Vista microPET instrument (GE Healthcare). PET images were acquired by using static mode during 20 min. The acquired data were reconstructed using the 2-Dimensional ordered-subsets expectation maximization (OSEM) algorithm and corrected from decay, scatter and randoms. No corrections were applied for partial volume or attenuation.
Regional tracer uptake was quantified by standard region-of-interest (ROI) analysis with eXplore Vista software package. A manual 2D-ROI was drawn around the tumour in each slice where tumour was visible, and on several subsequent coronal planes containing muscle tissue at the forelimb. Results are expressed by percentage of injected dose per gram of tissue (% ID/g).
PET imaging was performed 1 h post injection of tracers in B16BL6 tumour bearing mice at day-15 after tumours cell inoculation.

[4] = Calculation of absorbed dose to the tumour and organs (MIRD); type: in vivo, C57BL/6J mice; details: iodine 131
melanoma model B16BL6 = assay: Internal radiotherapy with [131I](1), B16BL6 model; type: in vivo, mice
[5] = test system: SKMEL-3 human melanoma model; assay: Internal radiotherapy with [131I](1), SKMEL-3 model; type: in vivo, mice
Description: Compound (1) was labelled with iodine-131, at high specific activity, from the corresponding stannane precursor, as described in detail in example 8. The labeling was performed with a radiochemical yield of 80% and a radiochemical purity>99%. […] The antitumour activity of the compound [^131I](1) was also evaluated in SKMEL-3 human melanoma model after injections of 25 MBq of [^131I](1): Two groups of mice were used receiving two injections at day-33 and day-40 or three injections of at day-33, day-40 and day-47 post inoculation. Results were compared to control group injected with saline.

CCN(CCNC(=O)c1cnc2cc(I)ccc2n1)CCOCCOCCOCCF [Compound 1, N-(12-ethyl-1-fluoro-3,6,9-trioxa-12-azatetradecan-14-yl)-6-iodoquinoxaline-2-carboxamide]
colocalisation with melanin polymers (SIMS, CN− and iodine-127 signals) (melanin polymers): perfect colocalisation

CCN(CCNC(=O)c1cnc2cc(I)ccc2n1)CCOCCOCCOCCOCCOCCOCCOCC[18F] [[^18F](5)]
octanol/water (PBS buffer) partition coefficient (log D) [1]: 0.95±0.02 | radiochemically stable at room temperature after preparation [2]: at least 6 h | % ID/g (tumour) ([3]; 1 h p.i.): 9.81 ± 2.96 % ID/g | % ID/g Blood ([3]; 1 h p.i.): 1.15 ± 0.19 % ID/g | % ID/g Bones ([3]; 1 h p.i.): 1.82±0.55 % ID/g | % ID/g Brain ([3]; 1 h p.i.): 1.03 ± 0.18 % ID/g | % ID/g Ceacum ([3]; 1 h p.i.): 6.37 ± 4.84 % ID/g | % ID/g Colon + faeces ([3]; 1 h p.i.): 7.39 ± 1.36 % ID/g | % ID/g Eyes ([3]; 1 h p.i.): 12.24 ± 4.39 % ID/g | % ID/g Heart ([3]; 1 h p.i.): 1.58 ± 0.24 % ID/g | % ID/g Kidney ([3]; 1 h p.i.): 3.60 ± 1.74 % ID/g | % ID/g Liver ([3]; 1 h p.i.): 2.02 ± 0.19 % ID/g | % ID/g Lung ([3]; 1 h p.i.): 1.75 ± 0.18 % ID/g | % ID/g Muscle ([3]; 1 h p.i.): 1.07 ± 0.35 % ID/g | % ID/g Pancreas ([3]; 1 h p.i.): 2.63 ± 1.33 % ID/g | % ID/g Skin ([3]; 1 h p.i.): 1.22 ± 0.22 % ID/g | % ID/g Small intestine ([3]; 1 h p.i.): 16.68 ± 7.93 % ID/g | % ID/g Spleen ([3]; 1 h p.i.): 2.35 ± 0.91 % ID/g | % ID/g Stomach ([3]; 1 h p.i.): 5.87 ± 3.32 % ID/g | TBR Tumour-to-Blood Ratio ([3]; 1 h p.i.): 8.29 ± 2.87 | TBoR Tumour-to-Bone Ratio ([3]; 1 h p.i.): 5.35 ± 0.82 | TMR Tumour-to-Muscle Ratio ([3]; 1 h p.i.): 9.48 ± 2.41 | % ID/g (tumour) ([3]; 2 h p.i.): 5.81 ± 1.37 % ID/g | % ID/g Blood ([3]; 2 h p.i.): 1.37 ± 0.30 % ID/g | % ID/g Bones ([3]; 2 h p.i.): 2.13 ± 0.19 % ID/g | % ID/g Brain ([3]; 2 h p.i.): 1.03 ± 0.10 % ID/g | % ID/g Ceacum ([3]; 2 h p.i.): 12.10 ± 10.31 % ID/g | % ID/g Colon + faeces ([3]; 2 h p.i.): 8.14 ± 1.78 % ID/g | % ID/g Eyes ([3]; 2 h p.i.): 12.10 ± 1.85 % ID/g | % ID/g Heart ([3]; 2 h p.i.): 1.70 ± 0.24 % ID/g | % ID/g Kidney ([3]; 2 h p.i.): 3.52 ± 1.02 % ID/g | % ID/g Liver ([3]; 2 h p.i.): 2.31 ± 0.64 % ID/g | % ID/g Lung ([3]; 2 h p.i.): 1.72 ± 0.72 % ID/g | % ID/g Muscle ([3]; 2 h p.i.): 1.04 ± 0.24 % ID/g | % ID/g Pancreas ([3]; 2 h p.i.): 1.56 ± 0.38 % ID/g | % ID/g Skin ([3]; 2 h p.i.): 0.94 ± 0.51 % ID/g | % ID/g Small intestine ([3]; 2 h p.i.): 19.51 ± 5.43 % ID/g | % ID/g Spleen ([3]; 2 h p.i.): 2.38 ± 0.87 % ID/g | % ID/g Stomach ([3]; 2 h p.i.): 7.35 ± 4.79 % ID/g | TBR Tumour-to-Blood Ratio ([3]; 2 h p.i.): 4.01 ± 1.12 | TBoR Tumour-to-Bone Ratio ([3]; 2 h p.i.): 2.75 ± 0.80 | TMR Tumour-to-Muscle Ratio ([3]; 2 h p.i.): 5.75 ± 1.45 | % ID/g (tumour) ([3]; 3 h p.i.): 6.76±1.35 % ID/g | % ID/g Blood ([3]; 3 h p.i.): 0.99 ± 0.20 % ID/g | % ID/g Bones ([3]; 3 h p.i.): 3.61 ± 1.12 % ID/g | % ID/g Brain ([3]; 3 h p.i.): 1.72 ± 0.67 % ID/g | % ID/g Ceacum ([3]; 3 h p.i.): 29.31 ± 17.94 % ID/g | % ID/g Colon + faeces ([3]; 3 h p.i.): 12.63 ± 7.83 % ID/g | % ID/g Eyes ([3]; 3 h p.i.): 13.43 ± 2.17 % ID/g | % ID/g Heart ([3]; 3 h p.i.): 3.00 ± 1.12 % ID/g | % ID/g Kidney ([3]; 3 h p.i.): 2.60 ± 1.69 % ID/g | % ID/g Liver ([3]; 3 h p.i.): 2.60 ± 1.37 % ID/g | % ID/g Lung ([3]; 3 h p.i.): 2.37 ± 0.67 % ID/g | % ID/g Muscle ([3]; 3 h p.i.): 1.11 ± 0.34 % ID/g | % ID/g Pancreas ([3]; 3 h p.i.): 1.81 ± 0.66 % ID/g | % ID/g Skin ([3]; 3 h p.i.): 1.47 ± 0.49 % ID/g | % ID/g Small intestine ([3]; 3 h p.i.): 18.62 ± 13.65 % ID/g | % ID/g Spleen ([3]; 3 h p.i.): 2.35 ± 0.98 % ID/g | % ID/g Stomach ([3]; 3 h p.i.): 5.39 ± 3.13 % ID/g | TBR Tumour-to-Blood Ratio ([3]; 3 h p.i.): 5.27±0.20 | TBoR Tumour-to-Bone Ratio ([3]; 3 h p.i.): 2.16 ± 1.15 | TMR Tumour-to-Muscle Ratio ([3]; 3 h p.i.): 6.64±2.69 | in vivo defluorination ([3]; 3 h p.i.): Partial in vivo defluorinations | eyes uptake (B16BL6 tumour): 5.53±1.35 % ID/g | muscles activity (B16BL6 tumour): 1.01±0.09 % ID/g | tumour uptake (B16BL6 tumour): 6.63±1.64 % ID/g | tumour/muscle ratio (B16BL6 tumour): 6.62±1.90

CCN(CCNC(=O)c1cnc2cc([131I])ccc2n1)CCOCCOCCOCCF [[^131I](1)]
octanol/water (PBS buffer) partition coefficient (log D) [1]: 0.95±0.04 | Biological half life (h) ([4]; Adipose): 38.28 h | Effective half life ([4]; Adipose): 47.78 h | Biological half life (h) ([4]; Bladder (empty)): 27.57 h | Effective half life ([4]; Bladder (empty)): 32.17 h | Biological half life (h) ([4]; Blood): 27.45 h | Effective half life ([4]; Blood): 32.02 h | Biological half life (h) ([4]; Brain): 27.55 h | Effective half life ([4]; Brain): 41.63 h | Biological half life (h) ([4]; Colon with Faeces): 28.48 h | Effective half life ([4]; Colon with Faeces): 26.92 h | Biological half life (h) ([4]; Eyes): 125.03 h | Effective half life ([4]; Eyes): 356.77 h | Biological half life (h) ([4]; Heart): 68.51 h | Effective half life ([4]; Heart): 46.93 h | Biological half life (h) ([4]; Kidney): 27.60 h | Effective half life ([4]; Kidney): 32.22 h | Biological half life (h) ([4]; Liver): 25.87 h | Effective half life ([4]; Liver): 29.89 h | Biological half life (h) ([4]; Lung): 37.73 h | Effective half life ([4]; Lung): 34.21 h | Biological half life (h) ([4]; Muscle): 37.36 h | Effective half life ([4]; Muscle): 46.36 h | Biological half life (h) ([4]; Pancreas): 29.04 h | Effective half life ([4]; Pancreas): 40.79 h | Biological half life (h) ([4]; Skin): 46.20 h | Effective half life ([4]; Skin): 60.79 h | Biological half life (h) ([4]; Small Bowels): 23.67 h | Effective half life ([4]; Small Bowels): 26.99 h | Biological half life (h) ([4]; Spleen): 33.66 h | Effective half life ([4]; Spleen): 33.43 h | Biological half life (h) ([4]; Stomach): 27.36 h | Effective half life ([4]; Stomach): 31.89 h | Biological half life (h) ([4]; Testes): 27.57 h | Effective half life ([4]; Testes): 32.16 h | Biological half life (h) ([4]; Tumour): 71.67 h | Effective half life ([4]; Tumour): 114.18 h | Biological half life (h) ([4]; bones): 12.92 h | Effective half life ([4]; bones): 13.85 h | metastasis dissemination (melanoma model B16BL6; B16BL6 melanoma model): inhibition of metastasis dissemination | tumour doubling time (melanoma model B16BL6; B16BL6 tumours, two i.v. injections of 20 MBq at day-7 and day-11): 2.9 ± 0.5 days | median survival time (melanoma model B16BL6; treated B16BL6 bearing-mice): 27 days | tumour doubling time ([5]; SKMEL-3 tumours, injections of 25 MBq once weekly for 2 or 3 weeks): 26.5 ± 7.8 days | median survival time ([5]; treated SKMEL-3 bearing-mice): 111 days
